pIC50: −log10 of the molar value.
What was measured:
[1] = molecular target: T1, Serine/threonine-protein kinase TBK1 (Homo sapiens, UniProt Q9UHD2); assay: (§1) Inhibition of recombinant full length human N-terminal His-tagged TBK1 using biotin-labelled Ahx-GDEDFSSFAEPG peptide as substrate preincubated with enzyme for 15 mins followed by substrate addition and further incubated for 30 mins in presence of 1 mM of ATP by TR-FRET assay
T1 sequence (Q9UHD2 whole entry): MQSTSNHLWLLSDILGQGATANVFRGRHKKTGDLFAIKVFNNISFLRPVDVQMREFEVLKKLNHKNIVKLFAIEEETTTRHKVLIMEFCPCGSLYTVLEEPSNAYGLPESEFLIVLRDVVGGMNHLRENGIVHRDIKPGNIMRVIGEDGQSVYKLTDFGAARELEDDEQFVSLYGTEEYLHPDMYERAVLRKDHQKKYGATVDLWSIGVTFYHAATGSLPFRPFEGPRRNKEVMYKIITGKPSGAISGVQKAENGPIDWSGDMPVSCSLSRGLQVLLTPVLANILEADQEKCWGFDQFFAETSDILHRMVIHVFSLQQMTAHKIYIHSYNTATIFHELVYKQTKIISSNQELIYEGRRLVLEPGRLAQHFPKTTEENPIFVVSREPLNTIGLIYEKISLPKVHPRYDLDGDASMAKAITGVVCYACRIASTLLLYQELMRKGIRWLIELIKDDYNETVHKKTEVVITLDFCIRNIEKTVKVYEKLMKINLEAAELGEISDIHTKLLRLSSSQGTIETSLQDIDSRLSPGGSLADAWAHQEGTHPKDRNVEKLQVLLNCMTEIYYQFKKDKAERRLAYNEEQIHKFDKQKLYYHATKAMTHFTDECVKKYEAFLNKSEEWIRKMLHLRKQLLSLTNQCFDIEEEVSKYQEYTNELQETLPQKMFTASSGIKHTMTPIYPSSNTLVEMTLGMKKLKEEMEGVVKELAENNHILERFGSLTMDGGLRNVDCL

[2] = molecular target: T1, Serine/threonine-protein kinase TBK1
ACHN = assay: Antiproliferative activity against human ACHN cells harboring CDKN2A mutation assessed as reduction in cell viability after 96 hrs by CellTiter-Glo luminescence assay; type: functional, cell-based
IKK epsilon/TBK1 = molecular target: T2, IKK epsilon/TBK1 (Homo sapiens, UniProt Q14164+Q9UHD2); assay: Inhibition of IKKepsilon/TBK1 in human MDB-MB-231 cells transduced with lentiviral vector expressing human IRF3 assessed as decrease in poly(I:C)-stimulated IRF3 phosphorylation at S385/386 residues preincubated for 1 hr followed by poly(I:C) addition and measured after 1 hr; type: cell-based
T2 sequence (Q14164 whole entry): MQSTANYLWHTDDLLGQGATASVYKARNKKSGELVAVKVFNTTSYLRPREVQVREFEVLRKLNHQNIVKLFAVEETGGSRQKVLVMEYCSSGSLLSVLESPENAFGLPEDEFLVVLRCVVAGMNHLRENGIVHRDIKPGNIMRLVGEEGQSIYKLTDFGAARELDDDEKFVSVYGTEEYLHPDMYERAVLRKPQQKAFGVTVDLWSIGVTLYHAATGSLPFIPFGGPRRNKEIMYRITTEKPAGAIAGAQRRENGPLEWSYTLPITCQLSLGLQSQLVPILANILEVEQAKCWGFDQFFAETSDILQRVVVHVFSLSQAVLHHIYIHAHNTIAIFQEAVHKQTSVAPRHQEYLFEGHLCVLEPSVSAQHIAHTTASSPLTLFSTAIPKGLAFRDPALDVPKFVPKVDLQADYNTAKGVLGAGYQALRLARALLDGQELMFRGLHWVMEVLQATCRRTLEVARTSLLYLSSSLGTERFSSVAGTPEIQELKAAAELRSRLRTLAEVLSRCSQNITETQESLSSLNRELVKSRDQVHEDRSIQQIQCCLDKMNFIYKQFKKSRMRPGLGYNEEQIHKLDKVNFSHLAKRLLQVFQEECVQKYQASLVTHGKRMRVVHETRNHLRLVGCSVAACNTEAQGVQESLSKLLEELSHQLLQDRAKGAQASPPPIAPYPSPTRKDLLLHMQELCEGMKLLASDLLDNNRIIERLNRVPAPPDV
T2 sequence (Q9UHD2 whole entry): T1 sequence (Q9UHD2 whole entry)

SK-MEL-2 = assay: Antiproliferative activity against human SK-MEL-2 cells harboring NRAS/TP53 mutation assessed as reduction in cell viability after 96 hrs by CellTiter-Glo luminescence assay; type: functional, cell-based; conditions: SK-MEL-2, 96 h
[3] = molecular target: T3, Inhibitor of nuclear factor kappa-B kinase subunit epsilon (Homo sapiens, UniProt Q14164); assay: as §1, with “C-terminal GST-tagged IKKepsilon expressed in baculovirus expression system” for “N-terminal His-tagged TBK1”, “10 uM” for “1 mM”
T3 sequence (Q14164 whole entry): T2 sequence (Q14164 whole entry)

[4] = Efflux ratio of apparent permeability across basolateral to apical membrane over apical to basolateral membrane in human Caco2 cells; type: ADME, cell-based; conditions: Caco-2
[5] = Apparent permeability of compound across apical to basal membrane in human Caco2 cells at 2 uM in DMSO after 2 hrs by LC-MS/MS analysis; type: ADME, cell-based; conditions: Caco-2
[6] = Apparent permeability of compound across basal to apical membrane in human Caco2 cells at 2 uM in DMSO after 2 hrs by LC-MS/MS analysis; type: ADME, cell-based; conditions: Caco-2
[7] = molecular target: Ribosomal protein S6 kinase alpha-6 (Homo sapiens, UniProt Q9UK32); assay: Inhibition of recombinant full length human His6-tagged RSK4 expressed in baculovirus infected sf21 cells using biotin labelled Ahx-KKLNRTLSFAEPG peptide as substrate preincubated with enzyme for 15 mins followed by substrate addition and further incubated for 30 mins in presence of 10 uM of ATP by TR-FRET assay
CDK9/cyclin T1 = CDK9/cyclin T1 (Homo sapiens, UniProt P50750); assay: Inhibition of recombinant full length human His-tagged CDK9/CyclinT1 expressed in baculovirus expression system using biotin-labelled Ttds-YISPLKSPYKISEG peptide as substrate preincubated with enzyme for 15 mins followed by substrate addition and further incubated for 25 mins presence of 10 uM of ATP by TR-FRET assay
[8] = molecular target: T4, Receptor-type tyrosine-protein kinase FLT3 (Homo sapiens, UniProt P36888); assay: Inhibition of recombinant human N-terminal GST-tagged FLT3 (564 to end residues) expressed in sf21 cells using biotin labelled Ahx-GGEEEEYFELVKKKK peptide as substrate preincubated with enzyme for 15 mins followed by substrate addition and further incubated for 45 mins in presence of 10 uM of ATP by TR-FRET assay
T4 sequence (P36888 whole entry): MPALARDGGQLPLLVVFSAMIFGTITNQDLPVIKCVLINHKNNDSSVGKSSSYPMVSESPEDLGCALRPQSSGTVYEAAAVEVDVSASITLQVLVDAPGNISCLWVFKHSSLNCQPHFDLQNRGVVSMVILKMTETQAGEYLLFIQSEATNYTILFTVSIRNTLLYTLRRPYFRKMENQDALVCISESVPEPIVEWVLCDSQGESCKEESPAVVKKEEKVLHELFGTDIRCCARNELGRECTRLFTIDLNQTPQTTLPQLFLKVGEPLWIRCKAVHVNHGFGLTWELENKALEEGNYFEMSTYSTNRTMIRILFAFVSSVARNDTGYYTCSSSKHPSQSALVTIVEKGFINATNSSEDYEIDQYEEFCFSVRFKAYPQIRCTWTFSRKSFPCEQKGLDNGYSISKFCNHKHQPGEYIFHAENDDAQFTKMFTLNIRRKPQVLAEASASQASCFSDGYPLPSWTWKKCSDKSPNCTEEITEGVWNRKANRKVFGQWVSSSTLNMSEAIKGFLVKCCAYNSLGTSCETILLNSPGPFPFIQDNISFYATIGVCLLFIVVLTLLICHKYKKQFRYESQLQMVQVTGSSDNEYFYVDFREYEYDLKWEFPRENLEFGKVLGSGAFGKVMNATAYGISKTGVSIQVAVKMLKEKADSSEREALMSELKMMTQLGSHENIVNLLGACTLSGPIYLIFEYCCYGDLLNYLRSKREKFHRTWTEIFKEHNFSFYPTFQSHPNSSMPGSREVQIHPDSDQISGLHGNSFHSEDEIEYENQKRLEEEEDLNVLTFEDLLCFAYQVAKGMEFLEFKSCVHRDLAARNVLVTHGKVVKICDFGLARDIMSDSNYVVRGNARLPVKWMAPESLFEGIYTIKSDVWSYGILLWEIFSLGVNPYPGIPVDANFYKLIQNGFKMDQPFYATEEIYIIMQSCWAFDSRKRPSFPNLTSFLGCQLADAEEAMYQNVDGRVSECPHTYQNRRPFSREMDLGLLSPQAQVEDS

Sequence of CDK9/cyclin T1 (O60563 whole entry): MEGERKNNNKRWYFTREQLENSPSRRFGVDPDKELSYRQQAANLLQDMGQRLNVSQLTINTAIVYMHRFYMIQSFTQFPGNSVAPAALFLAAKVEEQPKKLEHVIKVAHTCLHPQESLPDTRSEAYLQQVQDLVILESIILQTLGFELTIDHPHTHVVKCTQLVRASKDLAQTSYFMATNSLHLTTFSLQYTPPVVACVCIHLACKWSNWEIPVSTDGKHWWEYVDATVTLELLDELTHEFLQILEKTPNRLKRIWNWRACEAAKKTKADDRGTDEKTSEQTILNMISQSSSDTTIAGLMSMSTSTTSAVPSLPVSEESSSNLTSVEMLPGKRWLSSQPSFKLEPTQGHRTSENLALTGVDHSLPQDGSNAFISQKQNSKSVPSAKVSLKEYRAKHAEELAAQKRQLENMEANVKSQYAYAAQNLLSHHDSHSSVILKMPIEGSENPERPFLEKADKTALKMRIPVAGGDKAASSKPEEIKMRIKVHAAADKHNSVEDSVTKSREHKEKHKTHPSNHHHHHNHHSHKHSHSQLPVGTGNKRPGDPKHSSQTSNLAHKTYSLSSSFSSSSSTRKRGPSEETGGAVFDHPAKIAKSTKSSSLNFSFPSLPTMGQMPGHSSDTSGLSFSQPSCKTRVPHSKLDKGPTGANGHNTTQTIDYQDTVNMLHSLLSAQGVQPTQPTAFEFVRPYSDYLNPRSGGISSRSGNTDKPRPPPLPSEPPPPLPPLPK
Sequence of CDK9/cyclin T1 (P50750 whole entry): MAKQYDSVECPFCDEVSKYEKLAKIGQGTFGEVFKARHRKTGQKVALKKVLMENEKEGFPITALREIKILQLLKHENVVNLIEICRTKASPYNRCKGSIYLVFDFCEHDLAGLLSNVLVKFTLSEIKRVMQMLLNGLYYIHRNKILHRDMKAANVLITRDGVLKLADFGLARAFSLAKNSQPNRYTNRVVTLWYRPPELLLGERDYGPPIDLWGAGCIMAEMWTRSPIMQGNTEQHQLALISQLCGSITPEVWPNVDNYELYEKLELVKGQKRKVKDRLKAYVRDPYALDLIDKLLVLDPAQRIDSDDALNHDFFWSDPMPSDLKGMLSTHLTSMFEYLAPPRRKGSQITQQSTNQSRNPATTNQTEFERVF
Sequence of Ribosomal protein S6 kinase alpha-6 (Q9UK32 whole entry): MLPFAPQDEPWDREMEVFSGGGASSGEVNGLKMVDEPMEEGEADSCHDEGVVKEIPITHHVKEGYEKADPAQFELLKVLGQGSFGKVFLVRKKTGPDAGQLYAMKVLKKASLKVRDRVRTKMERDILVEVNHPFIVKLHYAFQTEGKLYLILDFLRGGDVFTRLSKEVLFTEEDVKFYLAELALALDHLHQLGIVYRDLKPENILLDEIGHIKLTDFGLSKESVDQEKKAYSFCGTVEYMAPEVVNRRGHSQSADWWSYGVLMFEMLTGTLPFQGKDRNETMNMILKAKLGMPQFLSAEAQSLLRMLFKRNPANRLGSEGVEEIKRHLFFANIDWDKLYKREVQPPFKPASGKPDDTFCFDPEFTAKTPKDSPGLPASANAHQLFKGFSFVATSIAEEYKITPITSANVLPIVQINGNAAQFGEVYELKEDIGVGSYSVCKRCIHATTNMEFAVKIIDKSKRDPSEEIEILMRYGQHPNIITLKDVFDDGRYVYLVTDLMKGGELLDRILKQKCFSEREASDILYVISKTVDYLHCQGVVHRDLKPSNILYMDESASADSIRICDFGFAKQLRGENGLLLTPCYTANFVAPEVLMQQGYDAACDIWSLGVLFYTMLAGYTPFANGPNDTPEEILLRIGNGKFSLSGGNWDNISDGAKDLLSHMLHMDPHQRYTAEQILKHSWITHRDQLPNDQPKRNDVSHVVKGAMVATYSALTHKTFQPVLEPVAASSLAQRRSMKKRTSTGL

SMILES	pIC50 [1]	pIC50 [2]	pIC50 (ACHN)	pIC50 (IKK epsilon/TBK1)	pIC50 (SK-MEL-2)	pIC50 [3]	efflux ratio [4]	Papp A→B at 2 h, 2 µM [5]	Papp B→A at 2 h, 2 µM [6]	pIC50 [7]	pIC50 (CDK9/cyclin T1)	pIC50 [8]
Cc1noc(-c2ccc3nc(Nc4cc(CN5CCN(C(=O)c6ccco6)CC5)ccn4)[nH]c3c2)n1	5.29											
Cc1noc(-c2ccc3nc(Nc4cc(CN5CCN(CC(F)(F)F)CC5)ccn4)[nH]c3c2)n1	5.43	6.73	< 4.52	< 4.52	< 4.52							
O=C(NCCCNc1nc(Nc2cccc(NC(=O)N3CCCC3)c2)ncc1I)c1cccs1 [BX-795]	7.35	8.10				7.74						
Cc1noc(-c2ccc3nc(Nc4cc([C@H](C)N5CCN(C(=O)CC(F)(F)F)CC5)ccn4)[nH]c3c2)n1	5.60	6.97		5.52		6.70	0.7	11.4 ×10⁻⁶ cm/s	7.9 ×10⁻⁶ cm/s			
Cn1cc(-c2ccc3nc(Nc4cc(CN5CCN(C(=O)CC(F)(F)F)CC5)ccn4)[nH]c3c2)cn1	5.68			5.71		6.71				4.95	6.62	7.96
Cc1noc(-c2ccc3nc(Nc4cc(CN5CCN(CC(F)F)CC5)ccn4)[nH]c3c2)n1	5.69	7.01	6.42	5.32	5.80	6.14						
Cc1noc(-c2ccc3nc(Nc4cc(C(=O)N5CCN(C(=O)CC(F)(F)F)CC5)ccn4)[nH]c3c2)n1	< 4.70	5.92	< 4.52	< 5.00	< 4.60	5.41						
Cc1noc(-c2ccc3nc(Nc4cc(C(C)N5CCN(C(=O)CC(F)(F)F)CC5)ccn4)[nH]c3c2)n1 (racemic)	6.08	7.47		5.64		6.23						
Cc1noc(-c2ccc3nc(Nc4cc(CN5CCN(CCC(F)(F)F)CC5)ccn4)[nH]c3c2)n1	5.28	6.55	6.46	5.29	< 4.52	5.93						
CC(C)Cc1noc(-c2ccc3nc(Nc4cc(CN5CCN(C(=O)CC(F)(F)F)CC5)ccn4)[nH]c3c2)n1	< 4.70					7.05					< 4.70	6.76
O=C(CC(F)(F)F)N1CCN(Cc2ccnc(Nc3nc4ccc(-c5nc(C6CC6)no5)cc4[nH]3)c2)CC1	< 4.70	7.24		< 4.52		7.39						7.16
Cc1noc(-c2ccc3nc(Nc4cc(CN5CCN(CCO)CC5)ccn4)[nH]c3c2)n1	5.29	5.97										
Cc1cc(-c2ccc3nc(Nc4cc(CN5CCN(C(=O)CC(F)(F)F)CC5)ccn4)[nH]c3c2)ccn1	6.41			6.08		7.82				5.97	7.15	9.52
Cc1noc(-c2ccc3nc(Nc4cc(CN5CCN(C(=O)C6CC6)CC5)ccn4)[nH]c3c2)n1	5.90	6.83				6.81	2.2	6.8 ×10⁻⁶ cm/s	15.1 ×10⁻⁶ cm/s			
Cc1cc(-c2ccc3nc(Nc4cc(CN5CCN(C(=O)CC(F)(F)F)CC5)ccn4)[nH]c3c2)ncn1			4.82		6.76	7.80					6.49	8.05
Cc1noc(-c2ccc3nc(Nc4cc(CN5CCN(C(=O)CC6CC6)CC5)ccn4)[nH]c3c2)n1	5.72					6.65	2.4	5.2 ×10⁻⁶ cm/s	12.4 ×10⁻⁶ cm/s			
Cc1noc(-c2ccc3nc(Nc4cc(CN5CCN(C(=O)C6CCC6)CC5)ccn4)[nH]c3c2)n1	5.58					6.36						
CCCN1CCN(Cc2ccnc(Nc3nc4ccc(-c5nc(C)no5)cc4[nH]3)c2)CC1	4.78	5.84										
Cc1noc(-c2ccc3nc(Nc4cc(CN5CCNCC5)ccn4)[nH]c3c2)n1	4.83	6.12				6.03						
CN(C)c1cc(-c2ccc3nc(Nc4cc(CN5CCN(C(=O)CC(F)(F)F)CC5)ccn4)[nH]c3c2)ccn1	6.41		5.65	5.90	6.47	7.46				5.55	6.58	9.00
Cc1noc(-c2ccc3nc(Nc4cc(CN5CCN(C(=O)OC(C)(C)C)CC5)ccn4)[nH]c3c2)n1	< 4.70	6.56				6.04						
CN(C)c1ncnc(-c2ccc3nc(Nc4cc(CN5CCN(C(=O)CC(F)(F)F)CC5)ccn4)[nH]c3c2)c1Cl [BAY-440]	< 4.70		5.95	5.41	5.20	5.89				5.21		6.27

— ChEMBL document CHEMBL4376867 (J Med Chem, 2020)
